Where a name gives a salt, the structure may show the parent alone.
Assay: collision cross section in nitrogen (drift tube, single-field); higher = larger gas-phase ion size
[1] = ion type: [M+H], ion source: APCI, ion mode: Positive
[2] = ion type: [M+H], ion source: ESI, ion mode: Positive
[3] = ion type: [M+Na], ion source: ESI, ion mode: Positive
[4] = ion type: [M-H], ion source: ESI, ion mode: Negative
[5] = ion type: [M+], ion source: APCI, ion mode: Positive
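Also: chemical standards at 10 µM analysed by drift tube IMS-QTOF MS in about 3.95 torr nitrogen, mean of duplicate injections differing ≤1%, mass error below 10 ppm.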

| Compound | collision cross section in nitrogen [1] [Å²] | collision cross section in nitrogen [2] [Å²] | collision cross section in nitrogen [3] [Å²] | collision cross section in nitrogen [4] [Å²] | collision cross section in nitrogen [5] [Å²] |
| --- | --- | --- | --- | --- | --- |
| Cc1cc(F)ccc1-c1cc(N2CC[C@@H](O)[C@H]2CO)ncc1N(C)C(=O)C(C)(C)c1cc(C(F)(F)F)cc(C(F)(F)F)c1 | 245.7 | 244.6 | 246.4 | 232.7 | – |
| CCNc1nc(NC(C)(C)C)nc(SC)n1 [Terbutryn] | 159.9 | 159.4 | – | – | – |
| C/C=C/C=C/CO [(2E,4E)-Hexa-2,4-dien-1-ol] | – | – | – | – | 117.4 |
| c1ccc2ncccc2c1 [Quinoline] | 120.8 | – | – | – | – |
| Cc1oc(-c2ccccc2)nc1CCOc1cccc2c1ccn2CCC(=O)O | 190.8 | 190.6 | 186.3 | – | – |
| Nc1cccc(N)n1 [2,6-Diaminopyridine] | 118.9 | 119.8 | – | – | – |
| CCC1(c2ccc(N)cc2)CCC(=O)NC1=O (centres undefined) [Aminoglutethimide] | – | – | – | 158.8 | – |
| COC(=O)Nc1nc2cc(Sc3ccccc3)ccc2[nH]1 [Fenbendazole] | 175 | 174.6 | – | 174.9 | – |
| Cn1c(=O)[nH]c2ncn(C)c2c1=O [1,7-Dimethylxanthine] | 134.2 | – | – | 136.8 | – |
| CNC(=O)Oc1ccc2c(c1)[C@]1(C)CCN(C)[C@@H]1N2C [Physostigmine] | 169.6 | 169.8 | 169.6 | – | – |
| CC#C[C@]1(O)CC[C@H]2[C@@H]3CCC4=CC(=O)CCC4=C3[C@@H](c3ccc(N(C)C)cc3)C[C@@]21C [Mifepristone] | – | 221.9 | 246.2 | 221.9 | – |
| CCCCOCCOCCOC(=O)CCCCC(=O)OCCOCCOCCCC [Bis[2-(2-butoxyethoxy)ethyl] adipate] | 203.8 | 205.4 | 198.8 | – | – |
| CC(=O)CCCCn1c(=O)c2c(ncn2C)n(C)c1=O [3,7-Dihydro-3,7-dimethyl-1-(5-oxohexyl)-1H-Purine-2,6-dione] | – | 160.9 | 172 | – | – |
| O=[N+]([O-])c1ccc2[nH]cnc2c1 [6-Nitrobenzimidazole] | 136.5 | 136.5 | – | 123.6 | – |
| Nc1cc(S(=O)(=O)O)ccc1S(=O)(=O)O [2-Aminobenzene-1,4-disulfonic acid] | – | – | – | 147.3 | – |
| [O-][Cl+]O [Sodium chlorite] | – | – | – | 105.2 | – |
| CC(COc1ccc(Oc2ccccc2)cc1)Oc1ccccn1 (centres undefined) [Pyriproxyfen] | 184.3 | 184.3 | 185.4 | – | – |
| CC1(C)CCC(=Cc2ccc(Cl)cc2)C1(O)Cn1cncn1 (centres undefined) [Triticonazole] | 181.7 | 180.6 | 189 | – | – |
| O=C(NC(=O)c1c(F)cccc1F)Nc1ccc(Cl)cc1 [Diflubenzuron] | – | – | 177.4 | 169.5 | – |
| CCOP(=S)(S)OCC [Ammonium diethyl dithiophosphate] | – | – | – | 134.4 | – |

| Compound | collision cross section in nitrogen [1] [Å²] | collision cross section in nitrogen [2] [Å²] | collision cross section in nitrogen [3] [Å²] | collision cross section in nitrogen [4] [Å²] | collision cross section in nitrogen [5] [Å²] |
| --- | --- | --- | --- | --- | --- |
| COc1cc(OC)nc(NC(=O)NS(=O)(=O)c2ncccc2C(=O)N(C)C)n1 [Nicosulfuron] | – | – | 196.2 | – | – |
| CCCCOC(=O)C(C)CC (centres undefined) [Butyl 2-methylbutyrate] | – | – | – | 146.8 | – |
| NC(=S)c1c(Cl)cccc1Cl [Chlorthiamid] | – | – | – | 135.9 | – |
| CC(=NNC(=O)Nc1cc(F)cc(F)c1)c1ncccc1C(=O)O [Diflufenzopyr-sodium] | – | – | 182.3 | – | – |
| CC(C)Oc1cccc(NC(=O)c2ccccc2C(F)(F)F)c1 [Flutolanil] | 173.1 | 172.7 | 183.5 | 176.1 | – |
| CCCCCCCCCCCCCC(=O)O [Tetradecanoic acid] | – | – | – | 161.8 | – |
| CC(=O)N1CCN(c2ccc(OC[C@H]3CO[C@](Cn4ccnc4)(c4ccc(Cl)cc4Cl)O3)cc2)CC1 [Ketoconazole] | 217.3 | 216.8 | 225.3 | – | – |
| CCCCCCCCCCCC[N+](C)(C)[O-] [N,N-Dimethyldodecylamine-N-oxide] | 175.3 | 174.4 | 170.8 | – | – |
| O=S(=O)(O)CCN1CCN(CCO)CC1 [Sodium 2-[4-(2-hydroxyethyl)piperazin-1-yl]ethanesulfonate] | – | 151.1 | 167.9 | – | – |
| CC1CNc2c(cccc2S(=O)(=O)N[C@@H](CCCNC(=N)N)C(=O)N2CC[C@@H](C)C[C@@H]2C(=O)O)C1 (some centres undefined) [Argatroban] | – | 216.7 | 221.2 | 207.5 | – |
| CC1=NN(c2ccc(C(=O)O)cc2)C(=O)C1 [4-(3-Methyl-5-oxo-4,5-dihydro-1H-pyrazol-1-yl)benzoic acid] | – | 151.6 | – | 146.2 | – |
| C[C@@H]1C[C@H]2[C@@H]3CCC4=CC(=O)C=C[C@]4(C)[C@@]3(F)[C@@H](O)C[C@]2(C)[C@@]1(O)C(=O)COP(=O)(O)O [Dexamethasone sodium phosphate] | – | – | – | 201 | – |
| N[C@@H](Cc1cc(I)c(Oc2ccc(O)c(I)c2)c(I)c1)C(=O)O [3,5,3'-Triiodothyronine] | – | 205.3 | – | 198.1 | – |
| CCCCOCN(C(=O)CCl)c1c(CC)cccc1CC [Butachlor] | – | – | 184.4 | – | – |
| Cc1cnc2c(C(=O)O)c(Cl)ccc2c1 [Quinmerac] | 139.6 | 140.7 | 158 | – | – |
| CCC(C)N(C)C(=O)c1cc2ccccc2c(-c2ccccc2Cl)n1 (centres undefined) | 186.6 | 185.9 | 192.8 | – | – |
| Oc1c(I)cc(I)c2cccnc12 [Iodoquinol] | – | 146.4 | – | 147.3 | – |
| c1ccc(-c2ccccn2)nc1 [2,2'-Bipyridine] | 126.4 | 127 | – | – | – |
| Cc1nc(-c2ccc3c(c2)CCN(CCC2CCC(NC(=O)/C=C/c4ccc(F)cc4)CC2)CC3)no1 (centres undefined) | 225.5 | 224.8 | 236.2 | 226.8 | – |
| CCN(CCO)CCO [Ethyl diethanolamine] | 125.6 | 125.8 | – | – | – |

| Compound | collision cross section in nitrogen [1] [Å²] | collision cross section in nitrogen [2] [Å²] | collision cross section in nitrogen [3] [Å²] | collision cross section in nitrogen [4] [Å²] | collision cross section in nitrogen [5] [Å²] |
| --- | --- | --- | --- | --- | --- |
| Nc1ccc(NCCO)c([N+](=O)[O-])c1 [HC Red 3] | 141.6 | 142.2 | – | – | – |
| CCCc1ccccc1O [2-Propylphenol] | – | – | – | 129.6 | – |
| CC(=O)[C@@]1(O)CC[C@H]2[C@@H]3CCC4=CC(=O)CC[C@]4(C)[C@H]3CC[C@@]21C [17alpha-Hydroxyprogesterone] | – | – | – | 184.4 | – |
| Cc1ccc2c(c1)C(=O)c1ccccc1C2=O [2-Methylanthraquinone] | – | – | – | 145.3 | – |
| Cc1ccc(C2OC[C@@H]3OC(c4ccc(C)cc4)O[C@H]([C@H](O)CO)[C@@H]3O2)cc1 (some centres undefined) [Di-p-methylbenzylidenesorbitol] | 191.5 | 193.1 | 194.4 | – | – |
| CC#Cc1cc(C)nc(Nc2ccccc2)n1 [Mepanipyrim] | 152.6 | 153.1 | – | 160.6 | 147.3 |
| COc1cc(C)cc(O)c1 [3-Methoxy-5-methylphenol] | – | – | – | 130.1 | – |
| Cc1cc(C)c(C(=O)P(=O)(c2ccccc2)c2ccccc2)c(C)c1 [Diphenyl(2,4,6-trimethylbenzoyl)phosphine oxide] | – | – | 191.1 | – | – |
| Cc1ccc(N(CCO)CCO)cc1 [2,2'-[(4-Methylphenyl)imino]diethanol] | 141.8 | 143.4 | 151 | – | – |
| N#Cc1ccc(C2CCCc3cncn32)cc1 (centres undefined) [Fadrozole] | – | 157.3 | – | – | – |
| CC(C)(C)C(O)(CCc1ccc(Cl)cc1)Cn1cncn1 (centres undefined) [Tebuconazole] | 167.5 | 166.8 | 172.5 | – | – |
| CC(NC(C)(C)C)C(=O)c1cccc(Cl)c1 (centres undefined) [Bupropion hydrochloride] | – | 158.6 | – | – | – |
| Oc1cccc(C(F)(F)F)c1 [3-(Trifluoromethyl)phenol] | – | – | – | 121.3 | – |
| CC(C)(C)c1cc(/C=C2\SC(=N)NC2=O)cc(C(C)(C)C)c1O [Darbufelone mesylate] | 188.3 | 188 | 207.3 | 186.1 | – |
| CCCCOC(=O)c1ccccc1C(=O)O [Monobutyl phthalate] | – | – | – | 151.7 | – |
| CCOC(=O)c1cccc(O)c1 [Ethyl 3-hydroxybenzoate] | – | – | – | 137.7 | – |
| CCCOc1sc(C(=O)N2CCC(c3cc(CN)ccc3F)CC2)c(C)c1Br [AVE8923] | 197.2 | – | 204.9 | – | – |
| O=C(O)c1ccccc1C(=O)Nc1cccc2ccccc12 [Naptalam] | – | – | 170.9 | 168.6 | – |

— the supplement of paper PMC12317010
